Experiments:
Italian ryegrass = assay: Test D postemergence; assay type: in vivo, Lolium multiflorum
Text: (§1) Seeds of plant species selected from bluegrass (annual bluegrass, Poa annua), blackgrass (Alopecurus myosuroides), canarygrass (littleseed canarygrass, Phalaris minor), chickweed (common chickweed, Stellaria media), galium (catchweed bedstraw, Galium aparine), bromegrass, downy (downy bromegrass, Bromus tectorum), field poppy (Papaver rhoeas), field violet (Viola arvensis), green foxtail (Setaria viridis), deadnettle (henbit deadnettle, Lamium amplexicaule), Italian ryegrass (Lolium multiflorum), kochia (Kochia scoparia), lambsquarters (Chenopodium album), oilseed rape (Brassica napus), pigweed (Amaranthus retroflexus), chamomile (scentless chamomile, Matricaria inodora), Russian thistle (Salsola kali), speedwell (bird's-eye speedwell, Veronica persica), spring barley (Hordeum vulgare), spring wheat (Triticum aestivum), wild buckwheat (Polygonum convolvulus), wild mustard (Sinapis arvensis), wild oat (Avena fatua), wild radish (Raphanus raphanistrum), windgrass (Apera spica-venti), winter barley (Hordeum vulgare), and winter wheat (Triticum aestivum) were planted into a silt loam soil and treated preemergence with test chemicals formulated in a non-phytotoxic solvent mixture which included a surfactant.
(§2) At the same time, these species were planted in pots containing Redi-Earth® planting medium (Scotts Company, 14111 Scottslawn Road, Marysville, Ohio 43041) comprising spaghnum peat moss, vermiculite, wetting agent and starter nutrients and treated with postemergence applications of the test chemicals formulated in the same manner. Plants ranged in height from 2 to 18 cm (1- to 4-leaf stage). Treated plants and controls were maintained in a controlled growth environment for 7 to 21 days after which time all species were compared to controls and visually evaluated. Plant response ratings, summarized in Table D, are based on a scale of 0 to 100 where 0 is no effect and 100 is complete control. A dash (-) response means no test result.

wild mustard = assay: Test D postemergence; assay type: in vivo, Sinapis arvensis
Text: as §1, §2

chickweed = assay: Test D postemergence; assay type: in vivo, Stellaria media
Text: as §1, §2

kochia [1] = assay: Test D preemergence; assay type: in vivo, Kochia scoparia
Text: as §1, §2

field violet = assay: Test D preemergence; assay type: in vivo, Viola arvensis
Text: as §1, §2

field poppy = assay: Test D preemergence; assay type: in vivo, Papaver rhoeas
Text: as §1, §2

kochia [2] = assay: Test D postemergence; assay type: in vivo, Kochia scoparia
Text: as §1, §2

windgrass = assay: Test D preemergence; assay type: in vivo, Apera spica-venti
Text: as §1, §2

oilseed rape = assay: Test D postemergence; assay type: in vivo, Brassica napus
Text: as §1, §2

deadnettle = assay: Test D preemergence; assay type: in vivo, Lamium amplexicaule
Text: as §1, §2

[3] = 31 g ai/ha, scale 0 to 100 (0 no effect, 100 complete control)
[4] = 62 g ai/ha, scale 0 to 100 (0 no effect, 100 complete control)
[5] = 125 g ai/ha, scale 0 to 100 (0 no effect, 100 complete control)
[6] = 250 g ai/ha, scale 0 to 100 (0 no effect, 100 complete control)
[7] = 16 g ai/ha, scale 0 (no effect) to 100 (complete control)

## Clc1cnc(Oc2ccccc2-n2cc(Cl)cn2)nc1 [Compound 3]
Italian ryegrass; 16 g ai/ha, scale 0-100
  Plant response rating, Ryegrass, Italian: 60
Italian ryegrass; [3]
  Plant response rating, Ryegrass, Italian: 0
Italian ryegrass; [4]
  Plant response rating, Ryegrass, Italian: 0
Italian ryegrass; [5]
  Plant response rating, Ryegrass, Italian: 0
Italian ryegrass; [6]
  Plant response rating, Ryegrass, Italian: 0
Wild mustard; 16 g ai/ha, scale 0-100
  Plant response rating, Mustard, Wild: 75
Wild mustard; [3]
  Plant response rating, Mustard, Wild: 20
Wild mustard; [4]
  Plant response rating, Mustard, Wild: 35
Wild mustard; [5]
  Plant response rating, Mustard, Wild: 35
Wild mustard; [6]
  Plant response rating, Mustard, Wild: 85
chickweed; 16 g ai/ha, scale 0-100
  Plant response rating, Chickweed: 40
chickweed; [3]
  Plant response rating, Chickweed: 0
chickweed; [4]
  Plant response rating, Chickweed: 25
chickweed; [5]
  Plant response rating, Chickweed: 30
chickweed; [6]
  Plant response rating, Chickweed: 40
Kochia [1]; [7]
  Plant response rating, Kochia: 0
Kochia [1]; 31 g ai/ha, scale 0-100
  Plant response rating, Kochia: 30
Kochia [1]; 62 g ai/ha, scale 0-100
  Plant response rating, Kochia: 30
Kochia [1]; 125 g ai/ha, scale 0-100
  Plant response rating, Kochia: 30
Kochia [1]; 250 g ai/ha, scale 0-100
  Plant response rating, Kochia: 50
Field violet; [7]
  Plant response rating, Field Violet: 40
Field violet; 31 g ai/ha, scale 0-100
  Plant response rating, Field Violet: 80
Field violet; 62 g ai/ha, scale 0-100
  Plant response rating, Field Violet: 80
Field violet; 125 g ai/ha, scale 0-100
  Plant response rating, Field Violet: 85
Field violet; 250 g ai/ha, scale 0-100
  Plant response rating, Field Violet: 85
Field poppy; [7]
  Plant response rating, Field Poppy: 40
Field poppy; 62 g ai/ha, scale 0-100
  Plant response rating, Field Poppy: 40
Field poppy; 125 g ai/ha, scale 0-100
  Plant response rating, Field Poppy: 70
Field poppy; 250 g ai/ha, scale 0-100
  Plant response rating, Field Poppy: 80
Kochia [2]; 16 g ai/ha, scale 0-100
  Plant response rating, Kochia: 20
Kochia [2]; [3]
  Plant response rating, Kochia: 5
Kochia [2]; [4]
  Plant response rating, Kochia: 5
Kochia [2]; [5]
  Plant response rating, Kochia: 25
Kochia [2]; [6]
  Plant response rating, Kochia: 55
windgrass; [7]
  Plant response rating, Windgrass: 0
windgrass; 31 g ai/ha, scale 0 (no effect) to 100 (complete control)
  Plant response rating, Windgrass: 0
windgrass; 62 g ai/ha, scale 0-100
  Plant response rating, Windgrass: 0
windgrass; 125 g ai/ha, scale 0-100
  Plant response rating, Windgrass: 10
windgrass; 250 g ai/ha, scale 0-100
  Plant response rating, Windgrass: 20
Oilseed rape; 16 g ai/ha, scale 0-100
  Plant response rating, Oilseed Rape: 90
Oilseed rape; [3]
  Plant response rating, Oilseed Rape: 80
Oilseed rape; [4]
  Plant response rating, Oilseed Rape: 80
Oilseed rape; [5]
  Plant response rating, Oilseed Rape: 90
Oilseed rape; [6]
  Plant response rating, Oilseed Rape: 95
deadnettle; [7]
  Plant response rating, Deadnettle: 30
deadnettle; 31 g ai/ha, scale 0-100
  Plant response rating, Deadnettle: 30
deadnettle; 62 g ai/ha, scale 0-100
  Plant response rating, Deadnettle: 40
deadnettle; 125 g ai/ha, scale 0-100
  Plant response rating, Deadnettle: 40
deadnettle; 250 g ai/ha, scale 0-100
  Plant response rating, Deadnettle: 50

## FC(F)(F)COc1cnn(-c2ccccc2Oc2ncc(Cl)cn2)c1 [Compound 138, 5-chloro-2-[2-[4-(2,2,2-trifluoroethoxy)-1H-pyrazol-1-yl]phenoxy]pyrimidine]
Italian ryegrass; Lolium multiflorum, post-emergence, 16 g ai/ha, scale 0-100, read-out: Plant response rating, Ryegrass, Italian
  pest or weed control at 16 g/ha: 5%
Italian ryegrass; Lolium multiflorum, post-emergence, 31 g ai/ha, scale 0 to 100 (0 no effect, 100 complete control), read-out: Plant response rating, Ryegrass, Italian
  pest or weed control at 31 g/ha: 0%
Italian ryegrass; Lolium multiflorum, post-emergence, 62 g ai/ha, scale 0 to 100 (0 no effect, 100 complete control), read-out: Plant response rating, Ryegrass, Italian
  pest or weed control at 62 g/ha: 0%
Italian ryegrass; Lolium multiflorum, post-emergence, 125 g ai/ha, scale 0 to 100 (0 no effect, 100 complete control), read-out: Plant response rating, Ryegrass, Italian
  pest or weed control at 125 g/ha: 5%
Wild mustard; Brassica, post-emergence, 16 g ai/ha, scale 0-100, read-out: Plant response rating, Mustard, Wild
  pest or weed control at 16 g/ha: 65%
Wild mustard; Brassica, post-emergence, 31 g ai/ha, scale 0 to 100 (0 no effect, 100 complete control), read-out: Plant response rating, Mustard, Wild
  pest or weed control at 31 g/ha: 75%
Wild mustard; Brassica, post-emergence, 62 g ai/ha, scale 0 to 100 (0 no effect, 100 complete control), read-out: Plant response rating, Mustard, Wild
  pest or weed control at 62 g/ha: 75%
Wild mustard; Brassica, post-emergence, 125 g ai/ha, scale 0 to 100 (0 no effect, 100 complete control), read-out: Plant response rating, Mustard, Wild
  pest or weed control at 125 g/ha: 75%
chickweed; Stellaria media, post-emergence, 16 g ai/ha, scale 0-100, read-out: Plant response rating, Chickweed
  pest or weed control at 16 g/ha: 20%
chickweed; Stellaria media, post-emergence, 31 g ai/ha, scale 0 to 100 (0 no effect, 100 complete control), read-out: Plant response rating, Chickweed
  pest or weed control at 31 g/ha: 20%
chickweed; Stellaria media, post-emergence, 62 g ai/ha, scale 0 to 100 (0 no effect, 100 complete control), read-out: Plant response rating, Chickweed
  pest or weed control at 62 g/ha: 40%
chickweed; Stellaria media, post-emergence, 125 g ai/ha, scale 0 to 100 (0 no effect, 100 complete control), read-out: Plant response rating, Chickweed
  pest or weed control at 125 g/ha: 55%
Kochia [1]; Bassia scoparia, pre-emergence, 16 g ai/ha, scale 0 (no effect) to 100 (complete control), read-out: Plant response rating, Kochia
  pest or weed control at 16 g/ha: 20%
Kochia [1]; Bassia scoparia, pre-emergence, 31 g ai/ha, scale 0-100, read-out: Plant response rating, Kochia
  pest or weed control at 31 g/ha: 20%
Kochia [1]; Bassia scoparia, pre-emergence, 62 g ai/ha, scale 0-100, read-out: Plant response rating, Kochia
  pest or weed control at 62 g/ha: 35%
Kochia [1]; Bassia scoparia, pre-emergence, 125 g ai/ha, scale 0-100, read-out: Plant response rating, Kochia
  pest or weed control at 125 g/ha: 55%
Field violet; Viola arvensis, pre-emergence, 16 g ai/ha, scale 0 (no effect) to 100 (complete control), read-out: Plant response rating, Field Violet
  pest or weed control at 16 g/ha: 70%
Field violet; Viola arvensis, pre-emergence, 31 g ai/ha, scale 0-100, read-out: Plant response rating, Field Violet
  pest or weed control at 31 g/ha: 25%
Field violet; Viola arvensis, pre-emergence, 62 g ai/ha, scale 0-100, read-out: Plant response rating, Field Violet
  pest or weed control at 62 g/ha: 70%
Field violet; Viola arvensis, pre-emergence, 125 g ai/ha, scale 0-100, read-out: Plant response rating, Field Violet
  pest or weed control at 125 g/ha: 75%
Field poppy; Papaver rhoeas, pre-emergence, 16 g ai/ha, scale 0 (no effect) to 100 (complete control), read-out: Plant response rating, Field Poppy
  pest or weed control at 16 g/ha: 100%
Field poppy; Papaver rhoeas, pre-emergence, 31 g ai/ha, scale 0-100, read-out: Plant response rating, Field Poppy
  pest or weed control at 31 g/ha: 100%
Field poppy; Papaver rhoeas, pre-emergence, 62 g ai/ha, scale 0-100, read-out: Plant response rating, Field Poppy
  pest or weed control at 62 g/ha: 100%
Field poppy; Papaver rhoeas, pre-emergence, 125 g ai/ha, scale 0-100, read-out: Plant response rating, Field Poppy
  pest or weed control at 125 g/ha: 100%
Kochia [2]; Bassia scoparia, post-emergence, 16 g ai/ha, scale 0-100, read-out: Plant response rating, Kochia
  pest or weed control at 16 g/ha: 25%
Kochia [2]; Bassia scoparia, post-emergence, 31 g ai/ha, scale 0 to 100 (0 no effect, 100 complete control), read-out: Plant response rating, Kochia
  pest or weed control at 31 g/ha: 40%
Kochia [2]; Bassia scoparia, post-emergence, 62 g ai/ha, scale 0 to 100 (0 no effect, 100 complete control), read-out: Plant response rating, Kochia
  pest or weed control at 62 g/ha: 55%
Kochia [2]; Bassia scoparia, post-emergence, 125 g ai/ha, scale 0 to 100 (0 no effect, 100 complete control), read-out: Plant response rating, Kochia
  pest or weed control at 125 g/ha: 75%
windgrass; Apera spica-venti, pre-emergence, 16 g ai/ha, scale 0 (no effect) to 100 (complete control), read-out: Plant response rating, Windgrass
  pest or weed control at 16 g/ha: 0%
windgrass; Apera spica-venti, pre-emergence, 31 g ai/ha, scale 0 (no effect) to 100 (complete control), read-out: Plant response rating, Windgrass
  pest or weed control at 31 g/ha: 0%
windgrass; Apera spica-venti, pre-emergence, 62 g ai/ha, scale 0-100, read-out: Plant response rating, Windgrass
  pest or weed control at 62 g/ha: 0%
windgrass; Apera spica-venti, pre-emergence, 125 g ai/ha, scale 0-100, read-out: Plant response rating, Windgrass
  pest or weed control at 125 g/ha: 15%
Oilseed rape; Brassica napus, post-emergence, 16 g ai/ha, scale 0-100, read-out: Plant response rating, Oilseed Rape
  plant injury at 16 g/ha: 70%
Oilseed rape; Brassica napus, post-emergence, 31 g ai/ha, scale 0 to 100 (0 no effect, 100 complete control), read-out: Plant response rating, Oilseed Rape
  plant injury at 31 g/ha: 70%
Oilseed rape; Brassica napus, post-emergence, 62 g ai/ha, scale 0 to 100 (0 no effect, 100 complete control), read-out: Plant response rating, Oilseed Rape
  plant injury at 62 g/ha: 75%
Oilseed rape; Brassica napus, post-emergence, 125 g ai/ha, scale 0 to 100 (0 no effect, 100 complete control), read-out: Plant response rating, Oilseed Rape
  plant injury at 125 g/ha: 75%
deadnettle; Lamium amplexicaule, pre-emergence, 16 g ai/ha, scale 0 (no effect) to 100 (complete control), read-out: Plant response rating, Deadnettle
  pest or weed control at 16 g/ha: 5%
deadnettle; Lamium amplexicaule, pre-emergence, 31 g ai/ha, scale 0-100, read-out: Plant response rating, Deadnettle
  pest or weed control at 31 g/ha: 5%
deadnettle; Lamium amplexicaule, pre-emergence, 62 g ai/ha, scale 0-100, read-out: Plant response rating, Deadnettle
  pest or weed control at 62 g/ha: 20%
deadnettle; Lamium amplexicaule, pre-emergence, 125 g ai/ha, scale 0-100, read-out: Plant response rating, Deadnettle
  pest or weed control at 125 g/ha: 30%
